Assay results from ChEMBL document CHEMBL1201862, “PubChem BioAssay data set” (2004).
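Test compounds were applied to cells in 96-well plates for 48 hours at 5 doses. At the GI50, growth is halved.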 The source made the active and inactive calls. No stated cut-off is given here; in the data, active = GI50 up to about 1.1 µM and inactive = higher.

Key:
Test in all cases: NCI anticancer screen, dose series, 48 h
Hs-578T = tested on: Hs-578T
BT-549 = tested on: BT-549
MOLT-4 = tested on: MOLT-4
OVCAR-3 = tested on: OVCAR-3
M19-MEL = tested on: M19-MEL
UO-31 = tested on: UO-31
U-251 = tested on: U-251
IGROV-1 = tested on: IGROV-1
SK-MEL-28 = tested on: SK-MEL-28
MDA-MB-231 = tested on: MDA-MB-231
NCI-H23 = tested on: NCI-H23
HOP-18 = tested on: HOP-18
SW-620 = tested on: SW-620
NCI/ADR-RES = tested on: NCI/ADR-RES
K562 = tested on: K562
PC-3 = tested on: PC-3
KM12 = tested on: KM12
UACC-257 = tested on: UACC-257
SNB-75 = tested on: SNB-75
RPMI-8226 = tested on: RPMI-8226
SN12C = tested on: SN12C
UACC-62 = tested on: UACC-62
COLO 205 = tested on: COLO 205
DMS-273 = tested on: DMS-273
LXFL 529 = tested on: LXFL 529
DMS-114 = tested on: DMS-114
SK-MEL-5 = tested on: SK-MEL-5
OVCAR-5 = tested on: OVCAR-5
DU-145 = tested on: DU-145
M14 = tested on: M14
A549 = tested on: A549
Malme-3M = tested on: Malme-3M
OVCAR-4 = tested on: OVCAR-4
EKVX = tested on: EKVX
HT-29 = tested on: HT-29
RXF 393 = tested on: RXF 393
T47D = tested on: T47D
SF-539 = tested on: SF-539
OVCAR-8 = tested on: OVCAR-8
SNB-19 = tested on: SNB-19
SR = tested on: SR
NCI-H460 = tested on: NCI-H460
HOP-62 = tested on: HOP-62
HCC 2998 = tested on: HCC 2998
HOP-92 = tested on: HOP-92
KM-20L2 = tested on: KM-20L2
RXF 631 = tested on: RXF 631
LOX IMVI = tested on: LOX IMVI
TK-10 = tested on: TK-10
SK-MEL-2 = tested on: SK-MEL-2
MDA-MB-435 = tested on: MDA-MB-435
SK-OV-3 = tested on: SK-OV-3
HCT-116 = tested on: HCT-116
A498 = tested on: A498
NCI-H522 = tested on: NCI-H522
CAKI-1 = tested on: CAKI-1
CCRF-CEM = tested on: CCRF-CEM
DLD-1 = tested on: DLD-1
SF-295 = tested on: SF-295
ACHN = tested on: ACHN
786-0 = tested on: 786-0
HL-60 = tested on: HL-60
MDA-N = tested on: MDA-N
MCF7 = tested on: MCF7
NCI-H226 = tested on: NCI-H226
HCT-15 = tested on: HCT-15
SF-268 = tested on: SF-268
XF498 = tested on: XF498
SNB-78 = tested on: SNB-78

CCOC(=O)N1CCc2cc(OC)c(OC)c3c2c1cc1cc(OC)c(OC)cc13
GI50 (Hs-578T): 1990 nM (inactive) | GI50 (BT-549): 577 nM (active) | GI50 (MOLT-4): 5320 nM (inactive) | GI50 (OVCAR-3): 984 nM (active) | GI50 (M19-MEL): 1880 nM (inactive) | GI50 (UO-31): 11100 nM (inactive) | GI50 (U-251): 2700 nM (inactive) | GI50 (IGROV-1): 4570 nM (inactive) | GI50 (SK-MEL-28): 4190 nM (inactive) | GI50 (MDA-MB-231): 5960 nM (inactive) | GI50 (NCI-H23): 3950 nM (inactive) | GI50 (HOP-18): 28100 nM (inactive) | GI50 (SW-620): 1150 nM (inactive) | GI50 (NCI/ADR-RES): 655 nM (active) | GI50 (K562): 2910 nM (inactive) | GI50 (PC-3): 1540 nM (inactive) | GI50 (KM12): 695 nM (active) | GI50 (UACC-257): 12100 nM (inactive) | GI50 (SNB-75): 1370 nM (inactive) | GI50 (RPMI-8226): 3760 nM (inactive) | GI50 (SN12C): 4620 nM (inactive) | GI50 (UACC-62): 940 nM (active) | GI50 (COLO 205): 787 nM (active) | GI50 (DMS-273): 667 nM (active) | GI50 (LXFL 529): 3780 nM (inactive) | GI50 (DMS-114): 1550 nM (inactive) | GI50 (SK-MEL-5): 499 nM (active) | GI50 (OVCAR-5): 16900 nM (inactive) | GI50 (DU-145): 3590 nM (inactive) | GI50 (M14): 4290 nM (inactive) | GI50 (A549): 1700 nM (inactive) | GI50 (Malme-3M): 3500 nM (inactive) | GI50 (OVCAR-4): 10500 nM (inactive) | GI50 (EKVX): 8970 nM (inactive) | GI50 (HT-29): 492 nM (active) | GI50 (RXF 393): 2000 nM (inactive) | GI50 (T47D): 2790 nM (inactive) | GI50 (SF-539): 1690 nM (inactive) | GI50 (OVCAR-8): 4800 nM (inactive) | GI50 (SNB-19): 10900 nM (inactive) | GI50 (SR): 807 nM (active) | GI50 (NCI-H460): 1090 nM (active) | GI50 (HOP-62): 3270 nM (inactive) | GI50 (HCC 2998): 2290 nM (inactive) | GI50 (HOP-92): 3800 nM (inactive) | GI50 (KM-20L2): 1360 nM (inactive) | GI50 (RXF 631): 2420 nM (inactive) | GI50 (LOX IMVI): 2280 nM (inactive) | GI50 (TK-10): 7980 nM (inactive) | GI50 (SK-MEL-2): 2240 nM (inactive) | GI50 (MDA-MB-435): 393 nM (active) | GI50 (SK-OV-3): 2560 nM (inactive) | GI50 (HCT-116): 1220 nM (inactive) | GI50 (A498): 2210 nM (inactive) | GI50 (NCI-H522): 618 nM (active) | GI50 (CAKI-1): 2510 nM (inactive) | GI50 (CCRF-CEM): 4260 nM (inactive) | GI50 (DLD-1): 1300 nM (inactive) | GI50 (SF-295): 927 nM (active) | GI50 (ACHN): 4110 nM (inactive) | GI50 (786-0): 2530 nM (inactive) | GI50 (HL-60): 1320 nM (inactive) | GI50 (MDA-N): 127 nM (active) | GI50 (MCF7): 1100 nM (active) | GI50 (NCI-H226): 4330 nM (inactive) | GI50 (HCT-15): 914 nM | GI50 (SF-268): 4510 nM (inactive) | GI50 (XF498): 670 nM (active) | GI50 (SNB-78): 16100 nM (inactive)
